Where a SMILES comes first, the peptide text is derived from it. The star is where a group is joined. Cbz = O=C(OCc1ccccc1)*
Assays:
SHP2 [1] = target: T1, SHP2 (Homo sapiens, UniProt Q06124); assay: SHP2 degradation by Western blot in KYSE520 cells; details: for block of SHP2-D26-induced degradation of SHP2 protein: KYSE520, pre-treatment 1 h (VHL 10 µM, compound 4 10 µM, MLN4924 0.5 µM, MG132 3 µm), then SHP2-D26 0.1 µM
T1 sequence (Q06124 1-593): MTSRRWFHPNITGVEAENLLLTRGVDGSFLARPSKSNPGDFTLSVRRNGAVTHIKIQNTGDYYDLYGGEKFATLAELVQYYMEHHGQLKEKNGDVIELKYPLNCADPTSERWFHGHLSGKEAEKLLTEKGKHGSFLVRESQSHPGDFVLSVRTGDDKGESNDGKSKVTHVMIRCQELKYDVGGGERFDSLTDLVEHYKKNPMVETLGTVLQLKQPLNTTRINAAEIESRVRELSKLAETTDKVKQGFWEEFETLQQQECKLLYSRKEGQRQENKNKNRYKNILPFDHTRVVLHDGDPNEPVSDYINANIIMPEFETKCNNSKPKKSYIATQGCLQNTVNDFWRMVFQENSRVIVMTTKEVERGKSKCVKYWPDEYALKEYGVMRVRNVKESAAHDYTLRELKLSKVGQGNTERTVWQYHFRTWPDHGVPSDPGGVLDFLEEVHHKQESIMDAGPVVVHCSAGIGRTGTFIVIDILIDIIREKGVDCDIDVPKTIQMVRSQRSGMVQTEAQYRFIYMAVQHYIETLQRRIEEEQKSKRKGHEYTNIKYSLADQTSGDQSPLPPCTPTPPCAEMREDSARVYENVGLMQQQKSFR
Description: (§1) Western blotting and quantification were performed with regular western blot method and band quantification was performed using ImageJ. Treated cells were lysed by RIPA buffer supplemented with protease and phosphatase inhibitors. […] The net protein bands and loading controls are calculated by deducting the background from the inverted band value. The final relative quantification values are the ratio of the net band to net loading control.
(§2) The treated cells were harvested and the level of SHP2 protein was examined by blot analysis. GAPDH was used as a loading control.
(§3) SHP2 protein was examined by Western blotting and the protein level was quantified by densitometry and normalized to the corresponding density of the GAPDH protein. […] Cells were treated with 100 nM of SHP2-D26 for different times. SHP2 protein was examined by Western blotting and the GAPDH protein was used as the loading control.

SHP2 [2] = target: T1, SHP2; assay: SHP2 degradation by Western blot in MV4;11 cells; details: 0.1 µM
Description: as §1, §2, §3

Row | SMILES | % of SHP2 protein degradation in KYSE520 cell line (SHP2 [1]; 0.1 µM) [%] | % of SHP2 protein degradation in KYSE520 cell line (SHP2 [1]; 1 µM) [%] | % of SHP2 protein degradation in MV4;11 cell line (SHP2 [2]) [%] | block of SHP2-D26-induced degradation of SHP2 protein (SHP2 [1])
1 | Cc1ncsc1-c1ccc([C@@H](C)NC(=O)[C@H]2C[C@H](O)CN2C(=O)[C@H](NC(=O)CCCCCCCCCCCNC(=O)CC(=O)Nc2cccc(Sc3ncc(N4CCC(C)(N)CC4)nc3N)c2Cl)C(C)(C)C)cc1 [Compound 16] | >95 | 93 | – | –
2 | Cc1ncsc1-c1ccc([C@@H](C)NC(=O)[C@H]2C[C@H](O)CN2C(=O)[C@H](NC(=O)COCCOCCOCCOCCNC(=O)CCC(=O)Nc2cccc(Sc3ncc(N4CCC(C)(N)CC4)nc3N)c2Cl)C(C)(C)C)cc1 [Compound 22] | 53 | >95 | 95 | –
3 | Cc1ncsc1-c1ccc([C@@H](C)NC(=O)[C@H]2C[C@H](O)CN2C(=O)[C@H](NC(=O)COCCOCCOCCNC(=O)CCC(=O)Nc2cccc(Sc3ncc(N4CCC(C)(N)CC4)nc3N)c2Cl)C(C)(C)C)cc1 [Compound 20] | 80 | >95 | >95 | –
4 | Cc1ncsc1-c1ccc([C@@H](C)NC(=O)[C@H]2C[C@H](O)CN2C(=O)[C@H](NC(=O)CCCCCCCCCCCNC(=O)CCCC(=O)Nc2cccc(Sc3ncc(N4CCC(C)(N)CC4)nc3N)c2Cl)C(C)(C)C)cc1 [Compound 19] | >95 | >95 | – | –
5 | Cc1ncsc1-c1ccc([C@@H](C)NC(=O)[C@H]2C[C@H](O)CN2C(=O)[C@H](NC(=O)CCCNC(=O)CC(=O)Nc2cccc(Sc3ncc(N4CCC(C)(N)CC4)nc3N)c2Cl)C(C)(C)C)cc1 [Compound 8] | 9 | 7 | – | –
6 | Cc1ncsc1-c1ccc([C@@H](C)NC(=O)[C@H]2C[C@H](O)CN2C(=O)[C@H](NC(=O)CCCCCCCCCNC(=O)CC(=O)Nc2cccc(Sc3ncc(N4CCC(C)(N)CC4)nc3N)c2Cl)C(C)(C)C)cc1 [Compound 14] | >95 | 92 | – | –
7 | Cc1ncsc1-c1ccc([C@@H](C)NC(=O)[C@H]2C[C@H](O)CN2C(=O)[C@H](NC(=O)CCCCNC(=O)CC(=O)Nc2cccc(Sc3ncc(N4CCC(C)(N)CC4)nc3N)c2Cl)C(C)(C)C)cc1 [Compound 9] | 13 | 6 | – | –
8 | Cc1ncsc1-c1ccc([C@@H](C)NC(=O)[C@H]2C[C@H](O)CN2C(=O)[C@H](NC(=O)CCCCCCCCCCCNC(=O)CCC(=O)Nc2cccc(Sc3ncc(N4CCC(C)(N)CC4)nc3N)c2Cl)C(C)(C)C)cc1 [Compound 18] | >95 | >95 | – | –
9 | Cc1ncsc1-c1ccc([C@@H](C)NC(=O)[C@H]2C[C@H](O)CN2C(=O)[C@H](NC(=O)CCCCCCCCCN2CCN(C(=O)CCC(=O)Nc3cccc(Sc4ncc(N5CCC(C)(N)CC5)nc4N)c3Cl)CC2)C(C)(C)C)cc1 [Compound 27] | >95 | >95 | >95 | –
10 | Cc1ncsc1-c1ccc([C@H](C)NC(=O)[C@@H]2C[C@@H](O)CN2C(=O)[C@@H](NC(=O)CCOCCOCCOCCNC(=O)CC(=O)Nc2cccc(Sc3ncc(N4CCC5(CCC[C@@H]5N)CC4)nc3N)c2Cl)C(C)(C)C)cc1 [Compound 42] | >95 | >95 | 94 | –
11 | Cc1ncsc1-c1ccc([C@@H](C)NC(=O)[C@H]2C[C@H](O)CN2C(=O)[C@H](NC(=O)CCCCCCCCCCNC(=O)CCC(=O)Nc2cccc(Sc3ncc(N4CCC(C)(N)CC4)nc3N)c2Cl)C(C)(C)C)cc1 [Compound 17] | >95 | >95 | – | –
12 | Cc1ncsc1-c1ccc([C@@H](C)NC(=O)[C@H]2C[C@H](O)CN2C(=O)[C@H](NC(=O)CCCCCCCCCCNC(=O)CC(=O)Nc2cccc(Sc3ncc(N4CCC(C)(N)CC4)nc3N)c2Cl)C(C)(C)C)cc1 [Compound 15] | >95 | >95 | – | –
13 | Cc1ncsc1-c1ccc([C@@H](C)NC(=O)[C@H]2C[C@H](O)CN2C(=O)[C@H](NC(=O)CCCCCCNC(=O)CC(=O)Nc2cccc(Sc3ncc(N4CCC(C)(N)CC4)nc3N)c2Cl)C(C)(C)C)cc1 [Compound 11] | 0 | 0 | – | –
14 | Cc1ncsc1-c1ccc([C@@H](C)NC(=O)[C@H]2C[C@H](O)CN2C(=O)[C@H](NC(=O)CCCCCCCNC(=O)CC(=O)Nc2cccc(Sc3ncc(N4CCC(C)(N)CC4)nc3N)c2Cl)C(C)(C)C)cc1 [Compound 12] | 20 | 14 | – | –
15 | CC(C)C[C@@H](C=O)NC(=O)[C@H](CC(C)C)NC(=O)[C@H](CC(C)C)NC(=O)OCc1ccccc1 [MG132, reference compound] (Cbz-Leu-Leu-Leu-aldehyde) | – | – | – | effectively block degradation of SHP2 protein
16 | Cc1ncsc1-c1ccc([C@@H](C)NC(=O)[C@H]2C[C@H](O)CN2C(=O)[C@H](NC(=O)CCCCCNC(=O)CC(=O)Nc2cccc(Sc3ncc(N4CCC(C)(N)CC4)nc3N)c2Cl)C(C)(C)C)cc1 [Compound 10] | 0 | 3 | – | –
17 | Cc1ncsc1-c1ccc([C@@H](C)NC(=O)[C@H]2C[C@H](O)CN2C(=O)[C@H](NC(=O)CCCCCCCCNC(=O)CC(=O)Nc2cccc(Sc3ncc(N4CCC(C)(N)CC4)nc3N)c2Cl)C(C)(C)C)cc1 [Compound 13] | 81 | 80 | – | –
18 | Cc1ncsc1-c1ccc([C@@H](C)NC(=O)[C@H]2C[C@H](O)CN2C(=O)[C@H](NC(=O)CCCCCCCOc2ccc(NC(=O)CCC(=O)Nc3cccc(Sc4ncc(N5CCC(C)(N)CC5)nc4N)c3Cl)cc2)C(C)(C)C)cc1 [Compound 28] | >95 | >95 | 90 | –
19 | Cc1ncsc1-c1ccc([C@@H](C)NC(=O)[C@H]2C[C@H](O)CN2C(=O)[C@H](NC(=O)CCCCCCCCCCCNC(=O)CC(=O)Nc2cccc(Sc3ncc(N4CCC(C)(CN)CC4)nc3N)c2Cl)C(C)(C)C)cc1 [Compound 40] | >95 | >95 | >95 | –
20 | Cc1ncsc1-c1ccc([C@@H](C)NC(=O)[C@H]2C[C@H](O)CN2C(=O)[C@H](NC(=O)CCOCCOCCOCCNC(=O)CCC(=O)Nc2cccc(Sc3ncc(N4CCC(C)(N)CC4)nc3N)c2Cl)C(C)(C)C)cc1 [Compound 21] | 32 | 87 | 85 | –
21 | Cc1ncsc1-c1ccc([C@@H](C)NC(=O)[C@H]2C[C@H](O)CN2C(=O)[C@H](NC(=O)CCCCCCCCCCCCCCC(=O)Nc2cccc(Sc3ncc(N4CCC(C)(N)CC4)nc3N)c2Cl)C(C)(C)C)cc1 [Compound 25] | 62 | 90 | 8 | –
22 | NS(=O)(=O)OC[C@@H]1C[C@@H](n2ccc3c(N[C@H]4CCc5ccccc54)ncnc32)C[C@@H]1O [MLN4924, reference compound] | – | – | – | effectively block degradation of SHP2 protein
23 | Cc1ncsc1-c1ccc([C@@H](C)NC(=O)[C@H]2C[C@H](O)CN2C(=O)[C@H](NC(=O)CCCCCCCCCCCN2CCN(CC(=O)Nc3cccc(Sc4ncc(N5CCC(C)(N)CC5)nc4N)c3Cl)CC2)C(C)(C)C)cc1 [Compound 24] | 80 | >95 | 6 | –
